Results from publication PMC9442787, “A Modified Yeast Two-Hybrid Platform Enables Dynamic Control of Expression Intensities to Unmask Properties of Protein–Protein Interactions” (ACS Synthetic Biology, 2022).

Columns and labels:
[1] = target: T1, SiGID1b1 (Solanum lycopersicum, UniProt A0A3Q7J108); assay: adjustable yeast two-hybrid, mScarlet-I fluorescence; type: cell-based; conditions: interaction with PROCERA; estradiol/progesterone-titrated expression; 30 °C
T1 construct: gene GID1b-1; receptor fused to GAL4 BD (pBD-pZ-FLAG), PROCERA fused to GAL4 AD (pACT-Lex), in yeast Y190; with DELLA protein GAI (PROCERA)
T1 sequence (A0A3Q7J108 1-345): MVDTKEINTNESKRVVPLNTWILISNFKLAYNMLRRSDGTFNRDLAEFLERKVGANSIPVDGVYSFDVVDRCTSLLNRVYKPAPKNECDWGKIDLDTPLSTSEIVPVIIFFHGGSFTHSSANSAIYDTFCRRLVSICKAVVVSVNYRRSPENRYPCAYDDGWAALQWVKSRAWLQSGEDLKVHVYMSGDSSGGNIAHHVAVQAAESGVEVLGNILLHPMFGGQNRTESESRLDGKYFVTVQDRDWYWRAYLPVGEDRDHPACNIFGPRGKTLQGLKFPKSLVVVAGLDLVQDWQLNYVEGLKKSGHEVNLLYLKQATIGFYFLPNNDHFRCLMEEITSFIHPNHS
T1 sequence (Q7Y1B6 1-588 partner): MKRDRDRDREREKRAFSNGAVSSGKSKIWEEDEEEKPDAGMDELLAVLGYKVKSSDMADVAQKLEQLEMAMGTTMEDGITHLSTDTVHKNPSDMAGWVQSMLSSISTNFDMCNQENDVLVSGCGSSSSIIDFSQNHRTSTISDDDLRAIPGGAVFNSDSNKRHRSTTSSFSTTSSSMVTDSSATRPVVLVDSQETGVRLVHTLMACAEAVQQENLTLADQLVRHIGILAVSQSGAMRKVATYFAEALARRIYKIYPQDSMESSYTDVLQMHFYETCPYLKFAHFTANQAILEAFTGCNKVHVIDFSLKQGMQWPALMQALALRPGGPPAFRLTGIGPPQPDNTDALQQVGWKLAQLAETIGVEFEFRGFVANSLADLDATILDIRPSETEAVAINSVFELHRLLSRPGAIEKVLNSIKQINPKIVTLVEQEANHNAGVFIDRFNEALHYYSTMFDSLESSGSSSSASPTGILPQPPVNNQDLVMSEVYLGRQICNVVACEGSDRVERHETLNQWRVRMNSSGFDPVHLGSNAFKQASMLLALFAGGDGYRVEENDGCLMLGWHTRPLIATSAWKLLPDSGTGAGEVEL

[2] = target: PYL7 (Arabidopsis thaliana, UniProt Q1ECF1); conditions: interaction with PP2C (HAB1 or ABI1 not told); low inducer concentrations; 30 °C
Sequence of PYL7 (Q1ECF1 whole entry): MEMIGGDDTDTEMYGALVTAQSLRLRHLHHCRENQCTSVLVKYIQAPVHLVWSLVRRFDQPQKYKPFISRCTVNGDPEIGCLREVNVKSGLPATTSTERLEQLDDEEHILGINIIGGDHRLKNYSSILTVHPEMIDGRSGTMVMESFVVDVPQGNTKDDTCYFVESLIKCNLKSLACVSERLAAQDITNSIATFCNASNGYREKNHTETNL
Sequence of PYL7 (Q9CAJ0 whole entry partner): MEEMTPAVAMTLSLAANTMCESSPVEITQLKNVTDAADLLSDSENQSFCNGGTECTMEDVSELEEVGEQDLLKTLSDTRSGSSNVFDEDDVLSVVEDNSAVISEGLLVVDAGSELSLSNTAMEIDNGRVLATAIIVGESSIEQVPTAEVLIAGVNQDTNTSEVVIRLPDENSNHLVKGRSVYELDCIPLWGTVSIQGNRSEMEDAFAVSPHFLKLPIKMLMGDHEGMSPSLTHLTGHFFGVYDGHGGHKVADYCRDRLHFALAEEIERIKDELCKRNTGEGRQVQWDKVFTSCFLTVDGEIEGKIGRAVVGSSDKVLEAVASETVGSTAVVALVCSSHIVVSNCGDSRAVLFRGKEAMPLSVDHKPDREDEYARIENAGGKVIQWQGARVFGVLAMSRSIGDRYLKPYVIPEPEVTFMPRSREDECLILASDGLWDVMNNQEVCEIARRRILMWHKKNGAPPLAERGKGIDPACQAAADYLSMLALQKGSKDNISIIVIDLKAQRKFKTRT

| maximal ratio of signal with ABA to mock [2] | Structure (SMILES) | adjustable yeast two-hybrid, mScarlet-I fluorescence [1] |
| --- | --- | --- |
| – | C=C1C[C@]23C[C@@]1(O)CC[C@H]2[C@@]12C=C[C@H](O)[C@@](C)(C(=O)O1)[C@H]2[C@@H]3C(=O)O [GA3] | SiGID1b1 displayed full dependency on GA presence for interaction with SiPROCERA |
| 4.9 | CC1=CC(=O)CC(C)(C)[C@@]1(O)/C=C/C(C)=C\C(=O)O [abscisic acid] | – |
